Data set [1] has as its system patients with persistent atrial fibrillation. The data set can be described thus: Clinical phase II study: safety. It is filed as in vivo, human. To be noted: oral once daily 4, 12 or 24 mg, three months. The method, then: (§1) In a clinical phase II study 119 patients with persistent atrial fibrillation were investigated with regard to the effect of treatment with Compound-02 (structure of general formula (VI)). The patients were divided into a placebo group and three treatment groups with different dosing of Compound-02. The low, medium and high dosing groups received an oral once daily dosing of 4 mg, 12 mg or 24 mg of Compound-02, respectively.
(§2) The study participants received an implantable cardiac monitor (ICM) at least one week prior to start of treatment with Compound-02. The treatment with Compound-02 was maintained for a total period of three months (i.e. Day 1 to Day 99) and started at least 1 week prior to direct current cardioversion (DCC) (see FIG. 1 for details of study protocol).

The subject of data set [2] is IL-6. The data set can be described thus: Clinical phase II study: IL-6 plasma concentration. It counts as in vivo, human. The method, then: as §1, §2
(§3) Plasma samples were taken from the patients at different study visits. Biomarkers were analyzed at baseline (V3) and at the end of treatment (V8). For 119 study participants complete sets of biomarkers could be obtained.

In a further data set the test system is PTX-3. The data set can be described thus: Clinical phase II study: PTX-3 plasma concentration. It is filed as in vivo, human. As to conditions: baseline to end-of-treatment (3 months); dose-dependent. How it is done:
as §1, §2, §3

The test system of a further data set is GDF-15. The data set can be described thus: Clinical phase II study: GDF-15 plasma concentration (sandwich ELISA). It is filed as in vivo, human. As to conditions: baseline to end-of-treatment (3 months); dose-dependent. The method, then: as §1, §2, §3
GDF-15 concentrations were measured in EDTA treated plasma samples with a solid phase sandwich ELISA (Human GDF-15 Quantikine ELISA kit, R&D Systems) using an immobilized mouse monoclonal anti-GDF-15 and a horseradish peroxidase-conjugated monoclonal anti-GDF-15 antibody. […] The reaction product is measured spectrophotometrically at 450 nm (Sunrise Absorbance Reader, TECAN).
In general terms: An ELISA detects its analyte on a solid surface through an enzyme-linked reagent.

Data set [3] relates to patients suffering from CAD. To be noted: CANTOS study patients with reduced circulating IL-6 levels; cited from earlier work.
The test system of data set [4] is IL-6. To be noted: CANTOS study, 4833 CAD patients; cited from earlier work.

On to `CNC(=O)C(=O)NCCCC/C=C\CCCCCCCOCC(=O)O` [Compound-02], for which, in data set [1], the “changes in the ECG or other types of arrhythmias” value is on record as “no changes” and the safety profile entry was “good safety profile”. In addition, the “reduction of IL-6 plasma concentration vs. placebo” value in the data set on IL-6 [2] (baseline to end-of-treatment (3 months), dose-dependent) is given as 30%. Also, the “reduction of IL-6 levels in response to treatment” value in the data set on IL-6 [2] (clinical study) is given as 25-40%. Moreover, in the data set on PTX-3, the “reduction of PTX-3 plasma concentration vs. placebo” value was 55%. For the same compound, the “reduction of GDF-15 plasma concentration vs. placebo” value in the data set on GDF-15 came to 30%.
Take “Canakinumab: anti-IL-1β antibody that modulates the IL-6 pathway”: the “reduction in major adverse cardiac events (MACE) compared to the placebo group” value in data set [3] is on record as 32%. Also, the “circulating IL-6 levels” value in the data set on IL-6 [4] was “reduces circulating IL-6 levels”.
